Measurements as given in patent US10961309B2, “Reducing systemic regulatory T cell levels or activity for treatment of disease and injury of the CNS” (Yeda Research and Development Co. Ltd, priority 2014, dated 2021).

How the values were obtained:
[1] = test system: soluble Aβ1-40 and Aβ1-42; assay: Soluble Aβ (sAβ) protein quantification by ELISA; assay type: in vivo, mouse; details: 3 weeks after 1 week ATRA treatment, AD-Tg mice
Protocol: Tissue homogenization and sAβ protein extraction was performed as previously described (Schmidt et al, 2005). Briefly, cerebral brain parenchyma was dissected and snap-frozen and kept at −80° C. until homogenization. Proteins were sequentially extracted from samples to obtain separate fractions containing proteins of differing solubility. Samples were homogenized in 10 volumes of ice-cold tissue homogenization buffer, containing 250 mM of sucrose, 20 mM of Tris base, 1 mM of ethylenediaminetetraacetic acid (EDTA), and 1 mM of ethylene glycol tetraacetic acid (pH 7.4), using a ground glass pestle in a Dounce homogenizer. After six strokes, the homogenate was mixed 1:1 with 0.4% diethylamine (DEA) in a 100-mM NaCl solution before an additional six strokes, and then centrifuged at 135,000 g at 4° C. for 45 min. The supernatant (DEA-soluble fraction containing extracellular and cytosolic proteins) was collected and neutralized with 10% of 0.5M of Tris-HCl (pH 6.8). Aβ1-40 and Aβ1-42 were individually measured by enzyme-linked immunosorbent assay (ELISA) from the soluble fraction using commercially available kits (Biolegend; #SIG-38954 and #SIG-38956, respectively) according to the manufacturer instructions.

GFP+ mo-MΦ = assay: Homing of GFP+ mo-MΦ in AD-Tg/CX3CR1GFP/+ BM chimeras; assay type: in vivo, mouse
Protocol: Tissue processing and immunohistochemistry were performed on paraffin embedded sectioned mouse (6 μm thick) and human (10 μm thick) brains. For human ICAM-1 staining, primary mouse anti-ICAM (1:20 Abcam; ab2213) antibody was used. Slides were incubated for 10 min with 3% H2O2, and a secondary biotin-conjugated anti-mouse antibody was used, followed by biotin/avidin amplification with Vectastain ABC kit (Vector Laboratories). Subsequently, 3,3′-diaminobenzidine (DAB substrate) (Zytomed kit) was applied; slides were dehydrated and mounted with xylene-based mounting solution. For tissue stainings, mice were transcardially perfused with PBS prior to tissue excision and fixation. CP tissues were isolated under a dissecting microscope (Stemi DV4; Zeiss) from the lateral, third, and fourth ventricles of the brain. […] Microscopic analysis, was performed using a fluorescence microscope (E800; Nikon) or laser-scanning confocal microscope (Carl Zeiss, Inc.). The fluorescence microscope was equipped with a digital camera (DXM 1200F; Nikon), and with either a 20× NA 0.50 or 40× NA 0.75 objective lens (Plan Fluor; Nikon). […] For quantification of staining intensity, total cell and background staining was measured using ImageJ software (NIH), and intensity of specific staining was calculated, as previously described (Burgess et al, 2010). […]

CC1=C(/C=C/C(C)=C/C=C/C(C)=C/C(=O)O)C(C)(C)CCC1 [ATRA, All-trans retinoic acid]
cerebral sAβ1-40 and sAβ1-42 levels [1]: increased

Glatiramer acetate [GA]
homing of GFP+ mo-MΦ to the CP and adjacent ventricular spaces (GFP+ mo-MΦ; weekly-GA vs vehicle-treated AD-Tg/CX3CR1GFP/+ controls): increased homing
GFP+ mo-MΦ in the brain parenchyma (immunohistochemistry) (GFP+ mo-MΦ; weekly-GA, AD-Tg/CX3CR1GFP/+ chimeras): accumulation at sites of cerebral plaque formation
